Measurements: patent USRE39681E1, “1-(4-sulfamyaryl)-3-substituted-5-aryl-2-pyrazolines and inhibitors of cyclooxygenase-2” (Temple University - of the Commonwealth System of Higher …, priority 1999, dated 2007)

Tests used:
[1] = Cyclooxygenase enzyme assay (TLC method), COX-1; type: biochemical, ovine; conditions: second column headed COX-2; preincubation 90-120 min, [1-14C] arachidonic acid 50 μM; read-out: Inhibition of Cyclooxygenase Activity IC50 COX-2
Experimental: Cyclooxygenase activity of ovine COX-1 (Oxford Biomedical Research Inc.) and human recombinant COX-2 (Oxford Biomedical Research Inc.) was assayed by a thin layer chromatography (TLC) method as follows. All inhibitors were dissolved in dimethyl sulfoxide to a stock solution of 5mM. Human recombinant COX-2 (3 units) or ovine COX-1 (15 units) was incubated with inhibitors at several concentrations in a solution containing 100 mM Tris-HCl, pH7.8, 500 μM phenol and hematin for 90 to 120 minutes at room temperature (24° C.). In controls, equal volumes of DMSO without drug were added to the incubation mixture. After incubation for 90-120 minutes, [1-^14C] arachidonic acid (50 μM, 51 mCi/mmol) (DuPont NEN) was added and incubated at 37° C. for 2 minutes. The reaction was terminated by extraction with 1 ml of ethyl acetate. The ethyl acetate layer was transferred into a fresh tube and evaporated to dryness in a Speedvac vacuum dryer. The contents of the tubes were reconstituted in […] of ethyl acetate and spotted on a TLC plate (J. T. Baker, Philipsburg, N.J.) and developed in a mobile phase containing chloroform/methanol (95:5) at 4° C. Radiolabeled prostanoid compounds (the products of COX enzymatic reaction with radiolabeled arachidonic acid substrate) were quantitated with a radioactivity scanner (Fuji, Phosphorimager). […]

DLD-1 cells = assay: Soft agar assay, colony growth; type: cell-based, human; conditions: highest concentration tested (range 10 μM to 75 μM), one dose, stained 20 days later, FIG. 1
Experimental: The Example 1 and 24 compounds were compared to the COX-2 inhibitor celecoxib in inhibiting the growth of DLD-1 cells in soft agar. DLD-1 cells are human colorectal carcinoma cells that overexpress COX-2. DLD-1 cells grow in soft agar and form tumors in nude mice. The soft agar assay was performed as follows. A layer of bottom agar ([…]) was placed onto 60 mm^2 tissue culture dishes. The tumor cells were trypsinized from normal growth flasks while in exponential growth. The cells were counted by using a hemacytometer and 1.0×10^5 cells were placed into the top agar mixture containing growth medium, 4% noble agar and various concentrations of drugs. The concentration range was normally between 10 μM to 75 μM. The cells were not refed during the assay system; therefore, the cells were treated with one dose of the agents. The plates were stained 20 days later with a 0.05% (w/v) nitroblue tetrazolium solution (which stains only viable cells) for 48 hours. The results are shown in FIG. 1, the y-axis being the percent of cell colonies remaining in comparison to untreated control cells.

NS(=O)(=O)c1ccc(N2N=C(C(F)(F)F)CC2c2c[nH]c3ccccc23)cc1 (stereo not shown) [Example 24, 1-(4-Sulfamylphenyl)-3-trifluoromethyl-5-(3-indolyl)-2-pyrazoline]
IC50 [1]: < 100 µM | inhibition of DLD-1 cell colony growth in soft agar (DLD-1 cells): 100%

NS(=O)(=O)c1ccc(N2N=C(C(F)(F)F)CC2c2ccccc2)cc1 (stereo not shown) [Example 1, 1-(4-Sulfamylphenyl)-3-trifluoromethyl-5-phenyl-2-pyrazoline]
IC50 [1]: < 100 µM | inhibition of DLD-1 cell colony growth in soft agar (DLD-1 cells): 100%
